BindingDB's records for doi:10.1038/sj.bjp.0705856 (Schering-Plough Research Institute, 2004)
“And” between values parts separate entries of the source, which are not always exact repeats. Identical values can stand only once.

Target: T1, Sphingosine 1-phosphate receptor 4 (Homo sapiens, UniProt O95977)
T1 sequence (O95977 whole entry): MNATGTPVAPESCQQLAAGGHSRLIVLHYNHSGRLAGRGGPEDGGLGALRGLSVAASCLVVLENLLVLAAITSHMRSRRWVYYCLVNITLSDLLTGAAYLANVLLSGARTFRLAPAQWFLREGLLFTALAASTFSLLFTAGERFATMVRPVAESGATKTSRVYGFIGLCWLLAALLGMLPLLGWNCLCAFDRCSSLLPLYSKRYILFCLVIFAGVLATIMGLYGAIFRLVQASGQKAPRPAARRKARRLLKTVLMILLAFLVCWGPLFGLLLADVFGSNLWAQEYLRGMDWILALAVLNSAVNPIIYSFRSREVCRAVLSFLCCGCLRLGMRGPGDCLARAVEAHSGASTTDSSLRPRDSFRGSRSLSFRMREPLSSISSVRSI

In the case of `CCCCCCCCCCCCC/C=C\C(O)C(N)COP(=O)(O)O` (stereo unspecified) [{[(4Z)-2-amino-3-hydroxyoctadec-4-en-1-yl]oxy}phosphonic acid], the Ki is reported as 21 nM and 64 nM and 27 nM and 32 nM and 28 nM and 33 nM.
